Read-outs that look alike come from different tables or passages of the source.
Columns and labels:
Drosophila melanogaster = assay: Anoxia tolerance of Drosophila melanogaster after CO2 / H2S treatment; assay type: in vivo; details: adult flies
Experimental: Adult flies were introduced into 35 mL tubes made of glass with a gas-tight rubber stopper (Balsh tubes). This was usually accomplished by anesthetizing flies with CO2, moving groups of flies to vials with food to recover for at least 2 hours, and then transferring them into the Balsh tube. To exchange the gaseous environment in the Balsh tube, two 18 gauge needles were inserted into the rubber stopper, and gas is blown into one of the needles at 100 mL/min. To prevent dessication, gasses were humidified by bubbling through 10 mL of water before passing it through the Balsch tube. The water in the bubbler is equilibrated with the gas for at least 20 minutes before starting the experiment.
For “stopped-flow” experiments, gas exchange proceeded for 60 minutes before sealing the tube. For “low-flow” experiments, gas flow continued throughout the experiment. CO2 was from the house source (100%), and anoxic environments were established by flushing out room air with 100% nitrogen (N2). Care was taken to prevent introduction of room air into the system while switching the atmosphere from CO2 to N2.
After anoxic treatment, oxygen was reintroduced into the Balsh tube by flushing with house air for 20 minutes. The rubber stopper was then removed and a food vial is inverted over the top of the Balsh tubes with Parafilm. […] Viability was scored at least 18 hours after the end of anoxic treatment. After two weeks, if the food vials contained larvae and/or pupae the flies were considered to be fertile.

mice = tested on: mice
From the text: Female C57BL/6J mice (Jackson Laboratories—Bar Harbor, Me.) were implanted with telemetry devices (PDT-4000 HR E-Mitter—MiniMitter Inc.—Bend, Oreg.) according to standard protocol provided by the manufacturer. Mice were allowed to recover for several weeks to permit body temperature and heart rate signals to stabilize. Core body temperature, heart rate, and movement of the mice were continuously monitored via the telemetry devices and recorded using VitalView software (provided by MiniMitter). Ambient temperature was monitored using a HOBO (Onset Computer Corp. —Pocasset, Mass.) and the data analyzed using BoxCar software (provided by Onset Computer Corp.).
Prior to and during exposure to testing in regulated and unregulated atmospheres, the mice were placed in a gassing chamber comprising a glass cage (with drinking water and no food) fitted with import and export tubes of FEP tubing from Cole-Parmer (Vernon Hills, Ill.) for introduction and venting of the atmosphere. The cage was sealed with a lid using Dow Corning silicone vacuum grease (Sigma—St. Louis, Mo.). The gas from each cage was vented through the export tube into the chemical hood. To ensure that the system was gas-tight, a GasTech GT portable monitor was used to detect leaks.
In some experiments, the consumption of oxygen was measured by use of a PA-10a O2 analyzer (Sable Systems) which was used according to manufacturers instructions. Similarly, the carbon dioxide being produced by the animals was monitored using a LI-7000 CO2/H2O analyzer (Li-Cor company) used according to the manufacturers instructions. These instruments were placed in line with the environmental chambers such that they sample the gas import and export tubing.
Mice were housed in a Shel Lab low temperature diurnal illumination incubator (Sheldon Manufacturing Inc. —Cornelius, Oreg.) to regulate both temperature and light cycle (8 AM lights on, 8 PM lights off) for the mice. Mice were exposed to regulated atmosphere as described above. When the mice were exposed to the regulated atmosphere, the temperature inside the incubator was dropped to the desired temperature, for example, to 10° C. or 15° C. The mice were maintained in the regulated atmosphere and at the lowered temperature for six hours. The atmosphere in the gassing chamber was replaced with room air and the mice were returned to normal room temperature (22° C.) and allowed to recover.
To test this hypothesis, the inventor wanted to continuously monitor both the core body temperature and the activity levels of a homeothermic animal (a mouse).

[1] = 80 ppm H2S, 15 minutes, 0.5 L chamber

SMILES: S [H2S, hydrogen sulfide]
- survival (Drosophila melanogaster; 50 ppm H2S in room air prior to 18.5 h anoxia): 25%
- survival (Drosophila melanogaster; 50 ppm H2S present in the CO2 pretreatment and removed as anoxia is established, 20 h): 35%
- survival (Drosophila melanogaster; CO2 10 min, H2S/CO2 10 min, N2/H2S 10 min, then N2, 15 h anoxic exposure, low-flow): 50%
- core body temperature reached repeatedly (mice; 80 ppm): 13-15 °C
- reduction in carbon dioxide production (mice; 80 ppm H2S (FIG. 4A)): approximately 3 fold
- drop in carbon dioxide production (mice; [1]): 3-4 fold
- drop in oxygen consumption (mice; [1]): 2-3 fold
- heart rate (mice; 80 ppm, 3 hrs, dropped from 600 bpm): 250 bpm
- lowest core body temperature recorded (mice; 80 ppm, ambient temperature dropped to less than 10° C. (FIG. 7)): 10.7 °C
- core temperature (mice; 80 ppm, cabinet 10° C., telemetry mouse, estimation from slope after electronics failed at 15.3° C.): approximately 12.5 °C
- core body temperature (mice; 80 ppm, cabinet 10.5° C., approximately six hours): 10.5 °C
- decrease in cellular respiration (mice; 80 ppm, core temperature 15° C.): 1-20 fold
- breathing (mice; 80 ppm, core temperature dropped to 15° C.): 1-10 breaths per minute
- core temperature (mice; 80 ppm, incubator 18° C., 90 min): 28.6 °C
- core temperature (mice; 80 ppm, incubator 18° C., 3 hrs): 18.6 °C
- Consumption of oxygen (mice; H2S (80 ppm) present): 1300 ppm
- production of carbon dioxide (mice; H2S (80 ppm) present): 750 ppm
- RQ (mice; mouse, in vivo): 0.58
- behavior of the animals (mice; mouse, in vivo): no apparent change in the behavior
- behavior tests (SHIRPA protocol) (mice; mouse, in vivo): no detectable behavioral differences
- lowest average core body temperature (mice; seven mice, 80 ppm, 6 hrs, ambient temperature 13° C.): 15 °C

From patent publication US8822535B2 (priority 2005, dated 2014)
